Drawing on patent publication US6984649B1, “Pyridine derivatives” (Bayer Aktiengesellschaft, priority 2000, dated 2006), this text covers IC50 for 68 compounds.

In the test the target is T1, human IKK-β (Homo sapiens, UniProt O14920).
T1 construct: A cDNA fragment encoding human IKK-β open reading frame was generated by PCR; His tag (from pcDNA3.1/His C); made in house; host or cells: Sf21 insect cells (baculovirus); substrate made in E. coli
T1 sequence (O14920 1-756): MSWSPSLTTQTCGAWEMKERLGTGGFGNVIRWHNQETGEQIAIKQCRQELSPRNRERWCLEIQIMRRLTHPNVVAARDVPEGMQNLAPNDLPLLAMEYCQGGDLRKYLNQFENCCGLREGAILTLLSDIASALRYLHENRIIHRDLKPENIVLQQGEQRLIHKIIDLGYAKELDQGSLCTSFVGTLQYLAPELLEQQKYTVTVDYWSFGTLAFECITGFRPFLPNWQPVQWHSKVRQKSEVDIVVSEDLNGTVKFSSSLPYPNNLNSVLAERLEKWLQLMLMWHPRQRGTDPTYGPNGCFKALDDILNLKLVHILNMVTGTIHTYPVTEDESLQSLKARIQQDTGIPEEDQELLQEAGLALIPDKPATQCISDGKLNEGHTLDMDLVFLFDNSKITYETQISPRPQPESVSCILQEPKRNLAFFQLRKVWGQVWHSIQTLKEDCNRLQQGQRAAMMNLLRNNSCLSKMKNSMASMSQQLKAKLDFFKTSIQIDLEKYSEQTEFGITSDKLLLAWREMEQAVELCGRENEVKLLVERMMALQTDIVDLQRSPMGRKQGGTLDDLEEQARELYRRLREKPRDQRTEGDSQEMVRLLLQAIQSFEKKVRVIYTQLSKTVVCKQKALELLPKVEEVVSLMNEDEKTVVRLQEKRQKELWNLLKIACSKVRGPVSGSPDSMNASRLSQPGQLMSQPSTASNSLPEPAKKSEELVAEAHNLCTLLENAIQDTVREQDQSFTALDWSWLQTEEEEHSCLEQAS
Description: IKK-β kinase inhibitory assay. Format: biochemical. The note with it: compounds as yielded by solid phase synthesis, purity about 40 to 90%, read-out: In vitro activity grade (In vitro IC50). An outline of the steps:
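Radiometric read-out: streptavidin capture of 33P-labelled bio-GST-IκBα(1-54), 0.2 μM, after a 2 h room-temperature reaction started with ATP/[γ-33P]ATP. Enzyme was recombinant His-tagged human IKK-β expressed in Sf21 insect cells, used at 0.6 μg/ml in Tris-HCl pH 7.6/MgCl2 kinase buffer. Compounds added in 2.5% DMSO.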
What is called IC50 is the concentration that gives 50% inhibition. Turning to `N#Cc1c(C2CCNCC2)cc(-c2ccccc2O)nc1N` [Example 1-13], the 50% inhibitory concentration (IC50) was less than 500 nM.

Regarding `N#Cc1c(C2CCCCN2)cc(-c2ccccc2O)nc1N` (centres unmarked) [Example 1-14], the IC50 lay in the range of 500 to 2000 nM.

With `N#Cc1c(C2CNCCN2)cc(-c2ccccc2O)nc1N` (centres unmarked) [Example 1-15], the IC50 lay within 500 to 2000 nM.

In the case of `Cc1cccc(-c2cc(C3CCCNC3)c(C#N)c(N)n2)c1O` (centres unmarked) [Example 1-17], the IC50 fell in the range of 500 to 2000 nM.

As to `N#Cc1c(C2CCCNC2)cc(-c2ccc(O)cc2O)nc1N` (centres unmarked) [Example 1-18], the IC50 lay in the range of 500 to 2000 nM.

Take `N#Cc1c(C2CCCNC2)cc(-c2cccc(F)c2O)nc1N` (centres unmarked) [Example 1-19]: the IC50 was less than 500 nM.

As to `N#Cc1c(C2CCCNC2)cc(-c2cccc(Cl)c2O)nc1N` (centres unmarked) [Example 1-20], the IC50 is less than 500 nM.

Consider `Cc1cccc(O)c1-c1cc(C2CCCNC2)c(C#N)c(N)n1` (centres unmarked) [Example 1-21], for which the half-inhibitory concentration (IC50) lay in the range of 2000 to 10000 nM.

On to `N#Cc1c(C2CCC(N)CC2)cc(-c2ccccc2O)nc1N` (centres unmarked) [Example 1-22], for which the concentration for half-maximal inhibition (IC50) is less than 500 nM.

For `N#Cc1c(C2CCCC(N)C2)cc(-c2ccccc2O)nc1N` (centres unmarked) [Example 1-23], the IC50 is less than 500 nM.

`N#Cc1c([C@@H](N)Cc2ccccc2)cc(-c2ccccc2O)nc1N` [Example 1-25]: the IC50 was less than 500 nM.

In the case of `COc1ccc(C[C@H](N)c2cc(-c3ccccc3O)nc(N)c2C#N)cc1` [Example 1-26], the IC50 is less than 500 nM.

Take `CCCC[C@H](N)c1cc(-c2ccccc2O)nc(N)c1C#N` [Example 1-28]: the IC50 was less than 500 nM.

`N#Cc1c([C@@H](N)CCc2ccccc2)cc(-c2ccccc2O)nc1N` [Example 1-29]: the IC50 was 500 to 2000 nM.

As for `N#Cc1c([C@@H](N)Cc2ccc(F)cc2)cc(-c2ccccc2O)nc1N` [Example 1-30], the IC50 was less than 500 nM.

In the case of `N#Cc1c([C@@H]2CCCN2)cc(-c2ccccc2O)nc1N` [Example 1-31], the IC50 lay in the range of 500 to 2000 nM.

As to `C[C@H](N)c1cc(-c2ccccc2O)nc(N)c1C#N` [Example 1-32], the 50% inhibitory concentration (IC50) is less than 500 nM.

`CC(C)[C@H](N)c1cc(-c2ccccc2O)nc(N)c1C#N` [Example 1-33]: the IC50 was less than 500 nM.

On to `N#Cc1c([C@H](N)Cc2ccccc2)cc(-c2ccccc2O)nc1N` [Example 1-34], for which the IC50 was less than 500 nM.

As to `N#Cc1c(CC(N)c2ccccc2)cc(-c2ccccc2O)nc1N` (centres unmarked) [Example 1-35], the IC50 was less than 500 nM.

Turning to `CC(N)Cc1cc(-c2ccccc2O)nc(N)c1C#N` (centres unmarked) [Example 1-36], the IC50 is less than 500 nM.

As for `N#Cc1c(CCN)cc(-c2ccccc2O)nc1N` [Example 1-37], the IC50 was less than 500 nM.

Take `N#Cc1c(C2CCC(C(=O)O)CC2)cc(-c2ccccc2O)nc1N` (centres unmarked) [Example 1-38]: the IC50 is less than 500 nM.

Turning to `CCc1cc(-c2ccccc2O)nc(N)c1C#N` [Example 1-39], the IC50 is 2000 to 10000 nM.

On to `N#Cc1c([C@H](Cc2ccccc2)NC(=O)CCN2CCCCC2)cc(-c2ccccc2O)nc1N` [Example 1-40], for which the IC50 was 500 to 2000 nM.

Turning to `N#Cc1c(C2CCCN(C(=O)CCN3CCCCC3)C2)cc(-c2ccccc2O)nc1N` (centres unmarked) [Example 1-41], the IC50 was 500 to 2000 nM.

As to `CS(=O)(=O)N1CCCC(c2cc(-c3ccccc3O)nc(N)c2C#N)C1` (centres unmarked) [Example 1-42], the IC50 was 2000 to 10000 nM.

As for `CCCN(CCC)C1CCCC(c2cc(-c3ccccc3O)nc(N)c2C#N)C1` (centres unmarked) [Example 1-43], the IC50 was less than 500 nM.

Consider `N#Cc1c(CCO)cc(-c2ccccc2O)nc1N` [Example 1-44], for which the IC50 was in the range of 500 to 2000 nM.

Regarding `Cc1cccc(COc2cccc(O)c2-c2cc(C3CCCNC3)c(C#N)c(N)n2)c1` (centres unmarked) [Example 2-07], the IC50 is less than 500 nM.

With `Cc1ccc(COc2cccc(O)c2-c2cc(C3CCCNC3)c(C#N)c(N)n2)cc1` (centres unmarked) [Example 2-08], the IC50 is less than 500 nM.

For the compound `N#Cc1c(C2CCCNC2)cc(-c2c(O)cccc2OCc2cccc(C(F)(F)F)c2)nc1N` (centres unmarked) [Example 2-09], the IC50 was less than 500 nM.

As for `N#Cc1c(C2CCCNC2)cc(-c2c(O)cccc2OCc2ccc(C(F)(F)F)cc2)nc1N` (centres unmarked) [Example 2-10], the half-inhibitory concentration (IC50) was less than 500 nM.

Take `N#Cc1c(C2CCCNC2)cc(-c2c(O)cccc2OCc2cccc(Br)c2)nc1N` (centres unmarked) [Example 2-11]: the IC50 is less than 500 nM.

`N#Cc1c(C2CCCNC2)cc(-c2c(O)cccc2OCc2ccccc2[N+](=O)[O-])nc1N` (centres unmarked) [Example 2-12]: the IC50 is less than 500 nM.

As to `N#Cc1c(C2CCCNC2)cc(-c2c(O)cccc2OCc2cccc([N+](=O)[O-])c2)nc1N` (centres unmarked) [Example 2-13], the IC50 was less than 500 nM.

In the case of `N#Cc1c(C2CCCNC2)cc(-c2c(O)cccc2OCc2ccc([N+](=O)[O-])cc2)nc1N` (centres unmarked) [Example 2-14], the half-maximal inhibitory concentration (IC50) was less than 500 nM.

For the compound `N#Cc1cccc(COc2cccc(O)c2-c2cc(C3CCCNC3)c(C#N)c(N)n2)c1` (centres unmarked) [Example 2-15], the IC50 is less than 500 nM.

Take `N#Cc1ccc(COc2cccc(O)c2-c2cc(C3CCCNC3)c(C#N)c(N)n2)cc1` (centres unmarked) [Example 2-16]: the IC50 was less than 500 nM.

For `N#Cc1c(C2CCCNC2)cc(-c2c(O)cccc2OCc2ccccc2Cl)nc1N` (centres unmarked) [Example 2-17], the IC50 was less than 500 nM.

Take `N#Cc1c(C2CCCNC2)cc(-c2c(O)cccc2OCc2cccc(Cl)c2)nc1N` (centres unmarked) [Example 2-18]: the 50% inhibitory concentration (IC50) is less than 500 nM.

In the case of `N#Cc1c(C2CCCNC2)cc(-c2c(O)cccc2OCc2ccc(Cl)cc2)nc1N` (centres unmarked) [Example 2-19], the IC50 was less than 500 nM.

With `N#Cc1c(C2CCCNC2)cc(-c2c(O)cccc2OCc2c(Cl)cccc2Cl)nc1N` (centres unmarked) [Example 2-20], the IC50 was less than 500 nM.

Take `N#Cc1c(C2CCCNC2)cc(-c2c(O)cccc2OCc2ccc3ccccc3c2)nc1N` (centres unmarked) [Example 2-21]: the IC50 was less than 500 nM.

`N#Cc1c(C2CCCNC2)cc(-c2c(O)cccc2OCCC2CCCCC2)nc1N` (centres unmarked) [Example 2-61]: the IC50 was less than 500 nM.

On to `N#Cc1c(C2CCCNC2)cc(-c2c(O)cccc2OCC2CCC2)nc1N` (centres unmarked) [Example 2-62], for which the IC50 was less than 500 nM.

For `CC(C)CCCOc1cccc(O)c1-c1cc(C2CCCNC2)c(C#N)c(N)n1` (centres unmarked) [Example 2-63], the IC50 was less than 500 nM.

In the case of `CCCCCCCOc1cccc(O)c1-c1cc(C2CCCNC2)c(C#N)c(N)n1` (centres unmarked) [Example 2-64], the IC50 was less than 500 nM.

With `N#Cc1c(C2CCCNC2)cc(-c2c(O)cccc2OCC2CC2)nc1N` (centres unmarked) [Example 2-65], the IC50 is less than 500 nM.

Regarding `CC(C)CCCOc1cccc(O)c1-c1cc(C2CCNCC2)c(C#N)c(N)n1` [Example 2-66], the IC50 is less than 500 nM.

`CCCOc1cccc(O)c1-c1cc(C2CCNCC2)c(C#N)c(N)n1` [Example 2-67]: the IC50 was less than 500 nM.

For the compound `N#Cc1c(C2CCNCC2)cc(-c2c(O)cccc2OCC2CCC2)nc1N` [Example 2-68], the IC50 is less than 500 nM.

For the compound `CCCCCOc1cccc(O)c1-c1cc(C2CCNCC2)c(C#N)c(N)n1` [Example 2-69], the half-maximal inhibitory concentration (IC50) was less than 500 nM.

For `N#Cc1c(C2CCNCC2)cc(-c2c(O)cccc2OCCC2CCCCC2)nc1N` [Example 2-70], the IC50 is less than 500 nM.

Turning to `CC(C)COc1cccc(O)c1-c1cc(C2CCNCC2)c(C#N)c(N)n1` [Example 2-71], the IC50 was less than 500 nM.

Regarding `CCCCCCCOc1cccc(O)c1-c1cc(C2CCNCC2)c(C#N)c(N)n1` [Example 2-73], the half-maximal inhibitory concentration (IC50) was less than 500 nM.

With `C=CCOc1cccc(O)c1-c1cc(C2CCNCC2)c(C#N)c(N)n1` [Example 2-74], the IC50 was less than 500 nM.

On to `CCOc1cccc(O)c1-c1cc(C2CCNCC2)c(C#N)c(N)n1` [Example 2-75], for which the IC50 is less than 500 nM.

For the compound `CCCCCCOc1cccc(O)c1-c1cc(C2CCNCC2)c(C#N)c(N)n1` [Example 2-76], the IC50 was less than 500 nM.

`CC(C)(C)C(=O)COc1cccc(O)c1-c1cc(C2CCCNC2)c(C#N)c(N)n1` (centres unmarked) [Example 2-77]: the IC50 is less than 500 nM.

As for `CC(C)(C)C(=O)COc1cccc(O)c1-c1cc(C2CCNCC2)c(C#N)c(N)n1` [Example 2-78], the IC50 was less than 500 nM.

`N#Cc1c(C2CCCNC2)cc(-c2c(O)cccc2OCC2CCCCO2)nc1N` (centres unmarked) [Example 2-79]: the IC50 is less than 500 nM.

As to `N#Cc1c(C2CCCNC2)cc(-c2c(O)cccc2OCC2CCCO2)nc1N` (centres unmarked) [Example 2-80], the concentration for half-maximal inhibition (IC50) was less than 500 nM.

For `N#Cc1c(C2CCCNC2)cc(-c2c(O)cccc2OCC2CCCO2)nc1N` (centres unmarked) [Example 2-81], the IC50 is less than 500 nM.

For `N#Cc1c(C2CCNCC2)cc(-c2c(O)cccc2OCC2CCCO2)nc1N` (centres unmarked) [Example 2-82], the IC50 was less than 500 nM.

Take `N#Cc1c(C2CCCNC2)cc(-c2c(O)cccc2OCCN2CCCCC2)nc1N` (centres unmarked) [Example 2-83]: the IC50 fell in the range of 500 to 2000 nM.

As for `N#Cc1c(C2CCCNC2)cc(-c2c(O)cccc2OCCN2CCOCC2)nc1N` (centres unmarked) [Example 2-84], the IC50 was less than 500 nM.

Turning to `CN(C)CCOc1cccc(O)c1-c1cc(C2CCCNC2)c(C#N)c(N)n1` (centres unmarked) [Example 2-85], the IC50 was in the range of 500 to 2000 nM.
